Laboratory results: US5677326A, “Indoline compound and 5-HT3 receptor antagonist containing the same as active ingredient” (Tokyo Tanabe Company Limited, priority 1993, dated 1997)

Experiments:
[1] = molecular target: T1, Intestinal 5-HT3 receptor (Cavia porcellus, UniProt O70212); assay: Intestinal 5-HT3 receptor antagonism (isolated distal colon, 2-methylserotonin-induced contraction); assay type: cell-based, Hartley guinea pigs; details: M (molar concentration of antagonist), isolated distal colon, 2-methylserotonin contraction
T1 sequence (O70212 24-490 limits assumed): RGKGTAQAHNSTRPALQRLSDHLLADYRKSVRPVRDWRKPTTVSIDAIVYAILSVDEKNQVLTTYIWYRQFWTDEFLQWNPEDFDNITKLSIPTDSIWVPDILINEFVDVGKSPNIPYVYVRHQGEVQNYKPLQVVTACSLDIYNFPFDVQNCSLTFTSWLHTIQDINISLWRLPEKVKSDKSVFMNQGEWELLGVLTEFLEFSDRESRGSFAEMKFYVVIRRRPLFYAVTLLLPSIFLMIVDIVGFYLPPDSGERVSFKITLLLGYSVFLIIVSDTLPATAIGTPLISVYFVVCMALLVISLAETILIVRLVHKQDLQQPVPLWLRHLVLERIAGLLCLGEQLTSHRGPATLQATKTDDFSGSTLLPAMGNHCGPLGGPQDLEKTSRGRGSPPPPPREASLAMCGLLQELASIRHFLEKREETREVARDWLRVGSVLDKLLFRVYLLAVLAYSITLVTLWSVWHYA
Method: The test was conducted following the method of Miyata, et al. (The Journal of Pharmacology and Experimental Therapeutics Vol.259, No:1, 15 (1991)).
Male Hartley guinea pigs with a body weight of 300-400 g were bled to death, the distal colon (3-10 cm from the anus) was isolated and suspended in a Magnus tube filled with Krebs solution aerated with a mixed gas (95% O2, 5% CO2), and subjected to a tensile load of 1 g. After constant contraction by cumulative addition of 2-methylserotonin (10^-6 -10^-4 M) was obtained, the test agent was added and the pA2 value of the test agent was calculated based on its inhibiting action on the initial value.
The value (pA2 value) is defined as the negative logarithm (-logM) of the molar concentration (M) of the antagonist required to reduce the effect of serotonin at a concentration of 2 times the 2-methylserotonin concentration (EC50) necessary to induce half of the maximum contraction reaction, to an effect induced by an EC50 of serotonin.

[2] = test system: 5-HT3 receptors in the upper intestine; assay: Antagonism against 5-HT-induced intestinal secretion (jejunal loop); assay type: in vivo, wister rats; details: caudal vein, 15 min before serotonin
Method: Antagonism against 5-HT-induced intestinal secretion:
Male wister rats (8-11 weeks old) were anesthetized with urethane, and the abdomen was opened a polyethylene catheter was placed in the jejunum 5 cm distal to the duodenojejunal flexure and fixed by ligation. The second ligation was made at a distal point of 20 cm to create a jejunal loop. Two ml of physiological saline was injected into this loop and initiated continuous injection of physiological saline (0.1 ml/min) or 5-HT (3 μg/0.1 ml/kg/min, serotonin treated group) into the mesenteric artery through the mesenteric artery gastric branch, and after 30 minutes the jejunal loop was isolated, the residual fluid amount was measured, and the net fluid transfer per gram of tissue weight was calculated. The net fluid transfer was expressed as the fluid amount (weight) change in 30 minutes per jejunal tissue weight (g/30 min/g). A "+" was assigned when the fluid amount increased compared with 2 ml of physiological saline injected into the loop, and "-" when it decreased

[3] = test system: restrained stress-induced diarrhea; assay: Inhibiting effect on restrained stress-induced diarrhea (oral administration); assay type: in vivo, Wistar rats; details: 1 hour before stress
Method: Inhibiting effect on restrained stress-induced diarrhea (oral administration): This test was conducted following the method of Miyata, et al. […] Nine-week-old male Wistar rats fasted overnight were placed in a stress cage and their feces produced in 5 hours were observed. Of 15 rats, 14 developed diarrhea. The inhibiting effect on diarrhea was measured by oral administration of the test compounds one hour prior to placement in the stress cage.

[4] = test system: restraint stress-induced diarrhea; assay: Inhibiting effect on restraint stress-induced diarrhea (intraabdominal administration); assay type: in vivo, Wistar rats; details: 30 μg/kg, 30 min before stress
Method: Inhibiting effect on restraint stress-induced diarrhea (intraabdominal administration): This test was conducted in the same manner as Test 3. Nine- to ten-week-oldmale Wistar rats fasted overnight were placed in a stress case and their feces produced in 5 hours were observed. Of 15 rats, 14 developed diarrhea. The inhibiting effect on diarrhea was measured by intraabdominal administration of a test compound 30 minutes prior to placement in the stress cage.

[5] = test system: duodenal extension reflex; assay: Inhibiting effect on duodenal extension reflex; assay type: in vivo, Wistar rats; details: intravenous
Source text: Inhibiting effect on duodenal extension reflex: Unfasted male Wistar rats with a body weight of 300-390 g were opened at the abdomen under urethane anesthesia, and ligated at 2 locations, the gastric pyloric region and 3-4 cm directly under it, to create a duodenal loop. […] The beaker was raised at once to create a internal loop pressure of 75 cm H2, and the depressor reflex and effect of the test agent administration were observed. […] The test agent was then administrated intravenously, and at 5, 15 and 25 minutes after administration an extension stimulus was applied, the depressor reflex was observed, and the differences were expressed as percentages with respect to the initial value, to give the inhibition rates.

[6] = molecular target: T2, 5-HT3 receptors in the heart (Rattus norvegicus, UniProt P35563); assay: Antagonism against Von Bezold-Jarisch reflex (BJ reflex); assay type: in vivo, SD rats; details: iv, 5 min before serotonin 30 μg/kg, read-out: ID50 (the source's name)
T2 construct: from tissue; host or cells: living anesthetized male SD rats (in vivo)
T2 sequence (P35563 24-483): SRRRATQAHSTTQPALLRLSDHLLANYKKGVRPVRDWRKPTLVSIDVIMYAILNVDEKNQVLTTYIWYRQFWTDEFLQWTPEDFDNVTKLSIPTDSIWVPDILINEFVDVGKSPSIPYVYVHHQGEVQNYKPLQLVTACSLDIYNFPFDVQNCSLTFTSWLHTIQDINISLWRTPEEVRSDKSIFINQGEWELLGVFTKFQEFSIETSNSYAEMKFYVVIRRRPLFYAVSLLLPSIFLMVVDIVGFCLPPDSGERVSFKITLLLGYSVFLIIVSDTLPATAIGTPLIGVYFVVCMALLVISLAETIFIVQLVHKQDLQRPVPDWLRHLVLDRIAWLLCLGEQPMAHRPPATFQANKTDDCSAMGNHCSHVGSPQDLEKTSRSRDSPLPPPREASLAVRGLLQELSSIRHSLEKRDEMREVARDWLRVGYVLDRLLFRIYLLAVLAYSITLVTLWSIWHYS
Method: Antagonism against Von Bezold-Jarisch reflex (BJ reflex):
The pulse was determined by measuring the electrocardiogram R waves (secondary induction) with an instantaneous pulse rate meter.

[7] = test system: cisplatin-induced vomiting; assay: Inhibiting effect on cisplatin-induced vomiting; assay type: in vivo, ferrets; details: oral, 1 hour before cisplatin; for No. of retching / No. of vomiting animals/No. of animals used / No. of vomitings: 6 hours
Source text: Inhibiting effect on cisplatin-induced vomiting:
Vomiting was induced in ferrets by administration of cisplatin. The inhibiting effect on this vomiting was observed. […] The test agents were orally administered one hour prior to cisplatin administration. […]

gastric emptying = assay: Accelerating effect on gastric emptying (cisplatin-reduced); assay type: in vivo, SD rats; details: oral, 30 min before cisplatin 10 mg/kg
Method: Accelerating effect on gastric emptying
Seven-week-old male SD rats which had been fasted for 24 hours were used. The effect on gastric emptying was studied in rats with reduced gastric emptying due to cisplatin. The rats were intragastrically administered the test feed (1.5% aqueous CMC solution containing 50 mg/100 ml phenol red) at 1.5 ml/rat, and after 15 minutes the stomachs were dissected, the residual amount of phenol red in the stomach was measured, in order to determine the gastric emptying in normal animals. A cisplatin-induced reduction in gastric emptying was measured by intraabdominal administration of cisplatin (10 mg/kg) 30 minutes prior to supplying the test feed. The test compound was also administered orally 30 minutes prior to the cisplatin administration to study the accelerating effect of the test compound on gastric emptying.

stress-related diarrhea = details: animal models; J. Pharmacol. Exp. Ther. 261, 297 (1992); cited from earlier work
vomiting = details: The Japanese Journal of Pharmacology 57, 387-395 (1991); cited from earlier work

Cl.Cn1cc(C(=O)[C@@H]2CCc3nc[nH]c3C2)c2ccccc21 [YM-060, (R)-(-)-5-[(1-methylindol-3-yl)carbonyl]-4,5,6,7-tetrahydrobenzimidazole hydrochloride, reference compound]
Kb [1]: 4.5 nM
net fluid transfer in jejunal loop ([2]; 1.0 μg/kg): -0.49 ± 0.06 g/30 min/g tissue weight
net fluid transfer in jejunal loop ([2]; 10 μg/kg): -0.74 ± 0.09 g/30 min/g tissue weight
Inhibition rate ([3]; 30 μg/kg): 60%
No. of animals with diarrhea/No. of animals used ([3]; 30 μg/kg): 4/10
Inhibition rate ([3]; 100 μg/kg): 75%
No. of animals with diarrhea/No. of animals used ([3]; 100 μg/kg): 2/8
Inhibition rate [4]: 50%
No. of animals with diarrhea/No. of animals used [4]: 7/14
Inhibition rate, 5-min value ([5]; 1 μg/kg): -27.9%
Inhibition rate, 15-min value ([5]; 1 μg/kg): -30.8%
Inhibition rate, 25-min value ([5]; 1 μg/kg): -14.8%
Inhibition rate, 5-min value ([5]; 10 μg/kg): 16.3%
Inhibition rate, 15-min value ([5]; 10 μg/kg): 6.3%
Inhibition rate, 25-min value ([5]; 10 μg/kg): 7.9%
ED50 [6]: 8.6e-05 µmol/kg
Latency* (time to initial retching) ([7]; 0.3 μg): 127.0 min
Latency** (time to initial vomiting) ([7]; 0.3 μg): 134.0 min
No. of retching ([7]; 0.3 μg): 126.0
No. of vomiting animals/No. of animals used ([7]; 0.3 μg): 2/2
No. of vomitings ([7]; 0.3 μg): 6.5
Latency* (time to initial retching) ([7]; 1.0 μg): > 272.2 min
Latency** (time to initial vomiting) ([7]; 1.0 μg): > 303.0 min
No. of retching ([7]; 1.0 μg): 41.6
No. of vomiting animals/No. of animals used ([7]; 1.0 μg): 3/5
No. of vomitings ([7]; 1.0 μg): 1.2
Gastric evacuation (gastric emptying; 0.3 μg/kg): 51.8%
Gastric evacuation (gastric emptying; 1.0 μg/kg): 74.2%
suppression of stress-related diarrhea (in words) (stress-related diarrhea): suppress stress-related diarrhea in animal models, with the effect of YM-060 being the strongest
antiemetic effect (in words) (vomiting): powerful antiemetic effect
